This is an account of results in patent publication US8580811B2 (Ligand Pharmaceuticals Incorporated, priority 2005, dated 2013).

One experiment concerns the target T1, human AR (Homo sapiens, UniProt P10275).
T1 construct: expressed in transfected cells; host or cells: COS-1 cells
T1 sequence (P10275 1-920): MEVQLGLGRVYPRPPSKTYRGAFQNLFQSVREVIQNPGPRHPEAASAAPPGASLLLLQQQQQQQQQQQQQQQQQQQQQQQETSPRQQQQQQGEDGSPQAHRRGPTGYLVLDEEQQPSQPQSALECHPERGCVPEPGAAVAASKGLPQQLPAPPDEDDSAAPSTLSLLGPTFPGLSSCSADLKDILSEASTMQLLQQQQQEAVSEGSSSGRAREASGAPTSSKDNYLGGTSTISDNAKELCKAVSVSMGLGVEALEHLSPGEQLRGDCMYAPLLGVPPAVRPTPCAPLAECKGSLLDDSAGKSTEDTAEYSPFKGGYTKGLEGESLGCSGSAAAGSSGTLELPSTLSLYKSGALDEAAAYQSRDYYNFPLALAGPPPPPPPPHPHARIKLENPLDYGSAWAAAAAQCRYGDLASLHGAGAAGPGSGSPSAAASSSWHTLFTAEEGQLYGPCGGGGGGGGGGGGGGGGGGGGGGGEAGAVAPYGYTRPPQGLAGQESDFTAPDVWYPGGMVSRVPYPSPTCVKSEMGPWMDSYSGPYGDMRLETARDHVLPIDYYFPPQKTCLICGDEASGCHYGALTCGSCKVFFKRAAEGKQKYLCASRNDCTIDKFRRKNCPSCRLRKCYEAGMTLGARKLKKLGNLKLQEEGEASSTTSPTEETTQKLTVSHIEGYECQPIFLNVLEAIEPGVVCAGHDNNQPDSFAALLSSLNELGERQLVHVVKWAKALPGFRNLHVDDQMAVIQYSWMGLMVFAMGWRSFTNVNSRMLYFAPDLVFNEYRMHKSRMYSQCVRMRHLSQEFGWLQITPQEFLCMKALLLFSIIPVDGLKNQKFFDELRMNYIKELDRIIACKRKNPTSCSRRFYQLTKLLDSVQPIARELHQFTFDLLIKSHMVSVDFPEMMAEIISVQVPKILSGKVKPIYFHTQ
Description: IR Binding Assay: whole cell competitive binding of test compounds against 3H-DHT in COS-1 cells transfected with pRShAR.
Details: not given
Put shortly: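 COS-1 cells transfected with pRShAR plus β-Gal reporter, serum-starved 24 h, then exposed to 1 nM ³H-DHT with compounds at 10^−10 to 10^−6 M for 3 h at 37 °C. Bound ³H-DHT counted in lysates, normalized to β-Gal. IC50 from log-logit plot; Ki via Cheng-Prusoff using Kd from Scatchard saturation analysis.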
Compound `Cc1cc2c3c(Cl)cc(=O)[nH]c3ccc2n1CC(F)(F)F` [Compound 186, 9-Chloro-2-methyl-3-(2,2,2-trifluoroethyl)-3,6-dihydro-pyrrolo[3,2-f]quinolin-7-one] registered an inhibitory constant (Ki) of 5 to 10 nM.
The same measure, in the same setting: as for `CC1Nc2ccc3[nH]c(=O)cc(Cl)c3c2C1C` (racemic) [Compound 140, (±)-9-Chloro-1,2-dimethyl-1,2,3,6-tetrahydro-pyrrolo[3,2-f]quinolin-7-one], the figure is over 10 nM.
Same read-out and setting: next, `Cc1c(C)n(CC(F)(F)C(F)(F)F)c2ccc3[nH]c(=O)cc(C(F)(F)F)c3c12` [Compound 219, 1,2-Dimethyl-3-(2,2,3,3,3-pentafluoropropyl)-9-trifluoromethyl-3,6-dihydro-pyrrolo[3,2-f]-quinolin-7-one]: under 5 nM; `CCc1c(C)[nH]c2ccc3[nH]c(=O)cc(Cl)c3c12` [Compound 109, 9-Chloro-2-methyl-1-ethyl-3,6-dihydro-pyrrolo[3,2-f]quinolin-7-one]: over 10 nM.
On the same count and under the same terms, next, `CCc1c(C)n(CC(F)(F)F)c2ccc3[nH]c(=O)cc(Cl)c3c12` [Compound 185, 9-Chloro-1-ethyl-2-methyl-3-(2,2,2-trifluoroethyl)-3,6-dihydro-pyrrolo[3,2-f]quinolin-7-one]: under 5 nM; `CC(=O)OCCn1c(C)c(C)c2c3c(C(F)(F)F)cc(=O)[nH]c3ccc21` [Compound 241, 3-(2-Acetoxyethyl)-1,2-Dimethyl-9-trifluoromethyl-3,6-dihydro-pyrrolo[3,2-f]quinolin-7-one]: 5 to 10 nM.
On to `Cc1c(C(F)(F)F)[nH]c2ccc3[nH]c(=O)cc(Cl)c3c12` [Compound 108, 9-Chloro-1-methyl-2-trifluoromethyl-3,6-dihydro-pyrrolo[3,2-f]quinolin-7-one], for which the inhibition constant (Ki) is under 5 nM.
The same measure, in the same setting: as for `CCc1c(C)c2c3c(Cl)cc(=O)[nH]c3ccc2n1C[C@@H](O)C(F)(F)F` [Compound 281, (R)-9-Chloro-2-ethyl-1-methyl-3-(3,3,3-trifluoro-2-hydroxy-propyl)-3,6-dihydro-pyrrolo[3,2-f]quinolin-7-one], the figure is under 5 nM; as for `CCc1c(-c2cccs2)[nH]c2ccc3[nH]c(=O)cc(Cl)c3c12` [Compound 123, 9-Chloro-1-ethyl-2-thien-2-yl-3,6-dihydro-pyrrolo[3,2-f]quinolin-7-one], 5 to 10 nM; as for `CCC1C(C)c2c(ccc3[nH]c(=O)cc(Cl)c23)N1CC(F)(F)C(F)(F)F` (racemic) [Compound 177, (±)-9-Chloro-2-ethyl-1-methyl-3-(2,2,3,3,3-pentafluoropropyl)-1,2,3,6-tetrahydro-pyrrolo[3,2-f]quinolin-7-one], under 5 nM.
The same measure, in the same setting: next, `CC1c2c(ccc3[nH]c(=O)cc(Cl)c23)N(CC(F)(F)F)C1c1cccc(C(F)(F)F)c1` (racemic) [Compound 159, (±)-9-Chloro-1-methyl-3-(2,2,2-trifluoroethyl)-2-(3-trifluoromethylphenyl)-1,2,3,6-tetrahydropyrrolo[3,2-f]quinolin-7-one]: over 10 nM; `Cc1c(C)n(CC(F)F)c2ccc3[nH]c(=O)cc(Cl)c3c12` [Compound 191, 9-Chloro-3-(2,2-difluoroethyl)-1,2-dimethyl-3,6-dihydro-pyrrolo[3,2-f]quinolin-7-one]: under 5 nM; `CCc1c(-c2ccccc2)n(CC(F)(F)F)c2ccc3[nH]c(=O)cc(Cl)c3c12` [Compound 203, 9-Chloro-1-ethyl-2-phenyl-3-(2,2,2-trifluoroethyl)-3,6-dihydro-pyrrolo[3,2-f]quinolin-7-one]: under 5 nM.
Still for that read-out and setting: as for `Cc1ccc(-c2c(C)c3c4c(Cl)cc(=O)[nH]c4ccc3n2CC(F)(F)F)s1` [Compound 258, 9-Chloro-1-methyl-2-(5-methyl-2-thiophenyl)-3-(2,2,2-trifluoroethyl)-3,6-dihydro-pyrrolo[3,2-f]quinolin-7-one], the figure is under 5 nM; as for `Cc1c(C)n(C[C@@H](O)CO)c2ccc3[nH]c(=O)cc(Cl)c3c12` [Compound 292, (R)-9-Chloro-3-(2,3-dihydroxypropyl)-1,2-dimethyl-3,6-dihydro-pyrrolo[3,2-f]-quinolin-7-one], over 10 nM.
Consider `Cc1c(C)n(CCc2cccs2)c2ccc3[nH]c(=O)cc(Cl)c3c12` [Compound 189, 9-Chloro-1,2-dimethyl-3-(2-thien-2-yl-ethyl)-3,6-dihydro-pyrrolo[3,2-f]quinolin-7-one], for which the inhibitory constant (Ki) was over 10 nM.
Compound `CC1c2c(ccc3[nH]c(=O)cc(C(F)(F)F)c23)N(CC(F)(F)Cl)C1C` (racemic) [Compound 175, (±)-3-(2-Chloro-2,2-difluoroethyl)-1,2-dimethyl-9-trifluoromethyl-1,2,3,6-tetrahydro-pyrrolo[3,2-f]quinolin-7-one] came in with a Ki of under 5 nM.
The same measure, in the same setting: as for `Cc1c(CCCI)c2c3c(Cl)cc(=O)[nH]c3ccc2n1CC(F)(F)C(F)(F)F` [Compound 270, 9-Chloro-1-(3-iodopropyl)-2-methyl-3-(2,2,3,3,3-pentafluoropropyl)-3,6-dihydro-pyrrolo[3,2-f]quinolin-7-one], the figure is over 10 nM; as for `Cc1c(C)n(CC(F)(F)F)c2cc(F)c3[nH]c(=O)cc(Cl)c3c12` [Compound 195, 9-Chloro-1,2-dimethyl-5-fluoro-3-(2,2,2-trifluoroethyl)-3,6-dihydro-pyrrolo[3,2-f]quinolin-7-one], under 5 nM.
Turning to `Cc1c(C)n(CC(O)C(F)(F)F)c2ccc3[nH]c(=O)cc(C(F)(F)F)c3c12` (racemic) [Compound 243, (±)-1,2-Dimethyl-3-(3,3,3-trifluoro-2-hydroxy-propyl)-9-trifluoromethyl-3,6-dihydro-pyrrolo[3,2-f]-quinolin-7-one], the inhibition constant (Ki) is under 5 nM.
Regarding `Cc1c(-c2cccc(Br)c2)n(CC(F)(F)F)c2ccc3[nH]c(=O)cc(Cl)c3c12` [Compound 198, 2-(3-Bromophenyl)-9-Chloro-1-methyl-3-(2,2,2-trifluoroethyl)-3,6-dihydro-pyrrolo[3,2-f]-quinolin-7-one], the inhibitory constant (Ki) was over 10 nM.
Same read-out and setting: as for `Cc1c(-c2ccncc2)n(C[C@H](O)C(F)(F)F)c2ccc3[nH]c(=O)cc(Cl)c3c12` [Compound 273, (S)-9-Chloro-1-methyl-2-(4-pyridyl)-3-(3,3,3-trifluoro-2-hydroxy-propyl)-3,6-dihydro-pyrrolo[3,2-f]quinolin-7-one], the figure is over 10 nM; as for `Cc1c(C)n(CCC(F)(F)F)c2ccc3[nH]c(=O)cc(Cl)c3c12` [Compound 213, 9-Chloro-1,2-dimethyl-3-(3,3,3-trifluoropropyl)-3,6-dihydro-pyrrolo[3,2-f]quinolin-7-one], under 5 nM.
Turning to `CC1c2c(ccc3[nH]c(=O)cc(Cl)c23)N(CC(F)(F)F)C1c1ccc(F)cc1` (racemic) [Compound 149, (±)-9-Chloro-2-(4-fluoro-phenyl)-1-methyl-3-(2,2,2-trifluoroethyl)-1,2,3,6-tetrahydro-pyrrolo[3,2-f]quinolin-7-one], the inhibition constant Ki is 5 to 10 nM.

Staying with this experiment, now noted: competition with 1 nM 3H-DHT, transfected COS-1 cells, 3 h at 37° C., Cheng-Prusoff from IC50; read-out: Ki.
`COc1ccc(-c2[nH]c3ccc4[nH]c(=O)cc(Cl)c4c3c2C)cc1` [Compound 115, 9-Chloro-2-(4-methoxy-phenyl)-1-methyl-3,6-dihydro-pyrrolo[3,2-f]quinolin-7-one]: the inhibition constant (Ki) was over 10 nM.
The same measure, in the same setting: as for `CCc1c(-c2ccccc2)[nH]c2ccc3[nH]c(=O)cc(Cl)c3c12` [Compound 125, 9-Chloro-1-ethyl-2-phenyl-3,6-dihydro-pyrrolo[3,2-f]quinolin-7-one], the figure is over 10 nM.
